# Results: patent US20050059718A1, “Methods of using zonisamide as an adjunctive therapy for partial seizures” (priority 2003, published 2005)
# Entries after “also recorded” stand apart in the source; their conditions may differ.
# Key:
# [1] = patients; cited from earlier work
# [2] = Text: The clinical manifestations of myeloma vary from smoldering myeloma to symptomatic plasma cell dyscrasia. A lot of variables, alone or in combination, have been used as a discriminating index of malignant proliferation of B-lymphocytes or plasma cells.
# rat hippocampal slices = settings: 10-30 μg/mL; cited from earlier work
# [3] = system: cultured mouse spinal cord neurons; settings: 10-30 μg/mL, cited from earlier work
# [4] = patients on regular dosages; cited from earlier work
# [5] = system: GABA/benzodiazepine receptor ionophore complex; settings: in vitro; no change in chloride flux; cited from earlier work
# liver enzymes = settings: cited from earlier work
# carbonic anhydrase = settings: relative to acetazolamide; cited from earlier work
# [6] = system: dopaminergic and serotonergic neurotransmission; settings: in vivo microdialysis; cited from earlier work
# [7] = cited from earlier work
# sodium channels = settings: in vitro; cited from earlier work
# T-type Ca2+ currents = settings: in vitro; cited from earlier work
smiles,measurement,setting,value
NC(=O)N1c2ccccc2C=Cc2ccccc21 [Carbamazepine],association with multiple myeloma,[1],associated with development of MM
O=C1NC(=O)C(c2ccccc2)(c2ccccc2)N1 [phenyloin],association with multiple myeloma,[1],implicated in several incidents of multiple myeloma
CCC1(c2ccccc2)C(=O)NCNC1=O [primidone],association with multiple myeloma,[1],associated with development of MM
CCCC(CCC)C(=O)[O-].[Na+] [sodium valproate],seizure control after replacing zonisamide,[2]; 13-month follow-up,prevented convulsions
"NS(=O)(=O)Cc1noc2ccccc12 [zonisamide, 1,2-benzisoxazole-3-methanesulfonamide]",neuronal or glial uptake of [3H]-GABA,rat hippocampal slices,without affecting
same,postsynaptic GABA or glutamate responses,[3]; cultured mouse spinal cord neurons,without affecting postsynaptic GABA or glutamate responses
same,synaptically-driven electrical activity,[3],suppresses synaptically-driven electrical activity
same,correlation between dosage or serum level and immunoglobulin levels,[4],no significant correlation
same,binding to GABA/benzodiazepine receptor ionophore complex,[5],binds to the GABA/benzodiazepine receptor ionophore complex in an allosteric fashion
same,liver (hepatic) enzyme induction,liver enzymes,not known to be a hepatic enzyme inducer; also recorded: no liver enzyme inducing activity
same,"carbonic anhydrase inhibiting activity, inhibition compared to acetazolamide",carbonic anhydrase,1/50
same,dopaminergic and serotonergic neurotransmission,[6],facilitates both dopaminergic and serotonergic neurotransmission
same,half-life,[7]; in vivo,long half-life
same,time required to achieve steady-state levels,[7]; upon reaching a stable dose or following dosage adjustment,up to two weeks
same,effect on sodium channels,sodium channels,blocks sodium channels
same,Bence-Jones protein in urine,"[2]; human, in vivo",not demonstrated
same,M-protein concentration,"[2]; human, in vivo",> 3.5 g/dL
same,bone marrow chromosomal analysis,"[2]; human, in vivo",normal karyotype of 46 XY
same,diagnosis,"[2]; human, in vivo",smoldering multiple myeloma
same,helper T cell count (CD4),"[2]; human, in vivo",normal
same,peripheral blood examination,"[2]; human, in vivo",no cytopenia
same,serum IgA,"[2]; human, in vivo",40 mg/dL
same,serum IgM,"[2]; human, in vivo",38 mg/dL
same,"serum creatinine, calcium and beta2-microglobulin","[2]; human, in vivo",not elevated
same,serum immunoglobulin G (IgG),"[2]; human, in vivo",3.68 g/dL
same,serum protein immunoelectrophoresis,"[2]; human, in vivo",M-protein composed of IgG with a single lambda type of L-chain
same,"effect on voltage-dependent, transient inward currents (T-type Ca2+ currents)",T-type Ca2+ currents,"reduces voltage-dependent, transient inward currents"
